{"source": "patent US20230250428A1", "about": "“Method and composition for early detection of malignancies” (Alliance of Cardiovascular Researchers, priority 2022, published 2023)", "key": {"4IC tumors": {"tested_on": "4IC tumors", "assay": "Effect of targeting TRAF3IP2 on chemoresistance in vivo (4IC tumors, Paclitaxel combination)", "parameters": "species or system mice", "settings": "vs SCR-AO group", "protocol": "FIG. 16. Effect of targeting TRAF3IP2 on chemoresistance in vivo. Tumors were induced using 4IC cells (n=6 animals/group), and mice were treated with one of the following: SCR-AO, SCR-AO+Paclitaxel, TRAF3IP2-AO, or TRAF3IP2-AO+Paclitaxel. Animals in the 4IC SCR-AO group were euthanized by day 28 due to increased tumor […]. Paclitaxel reduced tumor volume by 42% and TRAF3IP2 targeting reduced tumor size by 78%.\nAt first, we induced tumors using wild type 4IC cells and a similar set up described in FIG. 12. After tumor induction, each group was treated with one of the following: SCR-AO, SCR-AO and Paclitaxel, TRAF3IP2-AO, or TRAF3IP2-AO and Paclitaxel. Animals in the SCR-AO group had to be euthanized by day 28 due to increased tumor burden. Paclitaxel reduced tumor volume by 42% and TRAF3IP2 targeting reduced tumor size by 78%."}, "4IC cells": {"tested_on": "4IC cells", "assay": "Cell cycle profile of 4IC TNBC cells with TRAF3IP2 knockdown and/or Paclitaxel", "type": "cell-based, human", "settings": "4IC cells in vitro, vs 4ICControl shRNA", "description": "FIG. 7. […] Cell cycle profiles of 4ICControl shRNA, 4ICControl shRNA+Paclitaxel, 4ICTRAF3IP2 KD and 4ICTRAF3IP2 KD+Paclitaxel (A-D).\nPaclitaxel has been previously shown to arrest cell cycle progression at the G2/M phase, resulting in apoptosis."}}, "data": [{"smiles": "CC(=O)O[C@H]1C(=O)[C@@]2(C)[C@H]([C@H](OC(=O)c3ccccc3)[C@]3(O)C[C@H](OC(=O)[C@H](O)[C@@H](NC(=O)c4ccccc4)c4ccccc4)C(C)=C1C3(C)C)[C@]1(OC(C)=O)CO[C@@H]1C[C@@H]2O", "note": "[Paclitaxel]", "values": [{"measurement": "reduction of tumor volume", "setting": "4IC tumors", "result": 42, "unit": "%"}, {"measurement": "increase in the proportion of cells in G2", "setting": "4IC cells", "result": 23, "unit": "%"}]}]}
